Test results reported in patent publication US20240174723A1, “STAPLED ANTIMICROBIAL PEPTIDES (STAMPS) AND USES THEREOF” (Lytica Therapeutics, Inc., priority 2021, published 2024).
In brackets after ≈: the same amount, converted by molar mass. Positions of bridges follow the written chain, without caps; N, C: chain ends. Non-standard residues stand in square brackets, D forms with d. Residues, ends and D or L forms follow the SMILES beside them. Phe(4-CF3) = N[C@@H](Cc1ccc(C(F)(F)F)cc1)C(=O)O; S5 = C=CCCC[C@](C)(N)C(=O)O; Dab = NCC[C@H](N)C(=O)O

How the values were obtained:
P. aeruginosa = format: cell-based, Pseudomonas aeruginosa
In short: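 MIC taken as lowest peptide concentration with no visible growth after 20-24 h at 37 °C. Peptide serial dilutions from water stocks met P. aeruginosa inoculum (5×10^5 CFU/ml final) in MHB or MHB II, per a CLSI-adapted microbroth protocol.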

in vitro [1] = format: cell-based; conditions: human, Inhibitory Concentration at 50% Cytotoxicity (IC50) Human Liver Cells (HepG2)
In short: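 Cytotoxicity read by CellTiter-Glo luminescence after 48 h at 37 °C exposure to serially diluted StAMPs or vehicle. HepG2 cells were grown in EMEM plus 10% FBS and given 4 h to attach before dosing; peptides came from a 5 mg/mL aqueous stock.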

K. pneumoniae = format: cell-based, Klebsiella pneumoniae
In short: (§1)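 MIC by CLSI-adapted microbroth dilution; MHB or MHB II; inoculum 5×10^5 CFU/ml final; 20-24 h, 37 °C; endpoint = no visible growth.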

E. coli = format: cell-based, Escherichia coli
In short: as §1

in vitro [2] = format: cell-based; conditions: human
Procedure: Cell culture: RPTEC were maintained in MEM media supplemented with growth factors. HEPG2 cell line was maintained in Eagle's Minimum Essential Medium (EMEM) supplemented with fetal bovine serum to a final concentration of 10%.
90 minute cytotoxicity assay: Cells were plated in a 96-well format, and after overnight incubation, media was replaced with fresh media. Serial dilutions of StAMPs from a 5 mg/mL water stock, or vehicle, were added to the cells in a final volume of 100 μl. After incubating at 37° C. for 90 min, 50 μl of cell culture media was transferred to a clear 96-well plate, incubated with 50 μl of lactate dehydrogenase (LDH) assay reagent for 10 min, and absorbance measured at 490 nm on a microplate reader.
Renal toxicity was measured after 90 minutes of incubation, while liver toxicity was measured after 48 hours of incubation with StAMPs. N/A=not tested. The following apply to all peptides (i.e., StAMPs) listed in Tables A-C: Crosslinks (X^1—X^2 and X^3—X^4): (alk); N-terminus: —NH2; C-terminus: amidated with —NH2; counterion: Cl^−. The following apply to all peptides (i.e., StAMPs) listed in Table D: Crosslinks (X^1—X^2 and X^3—X^4): (alk); N-terminus: —NH2; C-terminus: as shown in table; counterion: Cl^−.
StAMP Micelle Formulation: DSPE-MPEG(2000) was suspended in buffered saline at 50-100 mg/mL overnight. StAMP stock solutions at 5-20 mg/mL in buffered saline were prepared and equal volumes of micelle and StAMP stock solution were mixed at the desired StAMP:Lipid ratio. Suspensions were allowed to sit for 5-10 minutes at room temperature before being used in in vitro and in vivo assays.
In Table E, the StAMP is StAMP 4 (Table A) and “Lipid”=DSPE-MPEG(2000).

S. aureus = format: cell-based, Staphylococcus aureus
In short: as §1

A. baumannii = format: cell-based, Acinetobacter baumannii
In short: as §1

| Minimum Inhibitory Concentration (MIC) P. aeruginosa (P. aeruginosa) [µg/mL] | Minimum Inhibitory Concentration (MIC) K. pneumoniae (K. pneumoniae) [µg/mL] | Minimum Inhibitory Concentration (MIC) E. coli (E. coli) [µg/mL] | IC50 at 90 min (in vitro [2]) [µg/mL] | Minimum Inhibitory Concentration (MIC) S. aureus (S. aureus) [µg/mL] | Minimum Inhibitory Concentration (MIC) A. baumannii (A. baumannii) [µg/mL] | SMILES | IC50 at 48 hours (in vitro [1]) [µg/mL] |
| --- | --- | --- | --- | --- | --- | --- | --- |
| 4 | 16 | 4 | > 200 | >64 | 3 | CC(C)[C@@H]1NC(=O)[C@@](C)(NC(=O)[C@H](C)NC(=O)[C@H](CCCCN)NC(=O)CNC(=O)[C@H](Cc2ccccc2)NC(=O)[C@H](CCCCN)NC(=O)[C@H](CCCCN)NC(=O)[C@H](CCCCN)NC(=O)[C@H](CCCCN)NC(=O)[C@H](CCCCN)NC(=O)[C@]2(C)CCCC=CCCC[C@](C)(NC(=O)CN)C(=O)NCC(=O)N[C@@H](CCCCN)C(=O)N[C@@H](Cc3ccccc3)C(=O)N2)CCCC=CCCC[C@@](C)(C(=O)N[C@@H](C)C(=O)N[C@@H](CCCCN)C(=O)N[C@@H](CCCCN)C(=O)NCC(=O)NCC(=O)N[C@@H](CCC(N)=O)C(N)=O)NC(=O)[C@H](CCC(=O)O)NC(=O)CNC1=O [compound 77] (H-G[S5]GKF[S5]KKKKKFGKA[S5]VGE[S5]AKKGGQ-NH2; staple 2-6, 16-20) | > 200 |
| 8 | 32 | 4 | > 200 | 16 | 4 | C[C@H](NC(=O)[C@H](CCCCN)NC(=O)CNC(=O)[C@H](Cc1ccccc1)NC(=O)[C@H](CCCCN)NC(=O)[C@H](CCCCN)NC(=O)[C@H](CCCCN)NC(=O)[C@H](CO)NC(=O)[C@H](Cc1c[nH]cn1)NC(=O)[C@]1(C)CCCC=CCCC[C@](C)(NC(=O)CN)C(=O)NCC(=O)N[C@@H](CCCCN)C(=O)N[C@@H](Cc2ccccc2)C(=O)N1)C(=O)N[C@@]1(C)CCCC=CCCC[C@@](C)(C(=O)N[C@@H](C)C(=O)N[C@@H](CCCCN)C(=O)N[C@@H](CCCCN)C(N)=O)NC(=O)[C@H](CCC(=O)O)NC(=O)CNC(=O)[C@H](Cc2c[nH]c3ccccc23)NC1=O [compound 64] (H-G[S5]GKF[S5]HSKKKFGKA[S5]WGE[S5]AKK-NH2; staple 2-6, 16-20) | > 200 |
| 4 | 4 | 2 | 17 (≈ 6.18 µM) | 32 | 2 | CC(C)[C@@H]1NC(=O)[C@H](C(C)C)NC(=O)[C@@](C)(NC(=O)[C@H](C)NC(=O)[C@H](CCCCN)NC(=O)CNC(=O)[C@H](Cc2ccc(C(F)(F)F)cc2)NC(=O)[C@H](CCCCN)NC(=O)[C@H](CCCCN)NC(=O)[C@H](CCCCN)NC(=O)[C@H](CCCCN)NC(=O)[C@H](Cc2c[nH]cn2)NC(=O)[C@]2(C)CCCC=CCCC[C@](C)(NC(=O)CN)C(=O)NCC(=O)N[C@@H](CCCCN)C(=O)N[C@@H](Cc3ccc(C(F)(F)F)cc3)C(=O)N2)CCCC=CCCC[C@@](C)(C(=O)N[C@@H](C)C(=O)N[C@@H](CCCCN)C(=O)N[C@@H](CCCCN)C(N)=O)NC(=O)[C@H](CCC(=O)O)NC1=O [compound 30] (H-G[S5]GK[Phe(4-CF3)][S5]HKKKK[Phe(4-CF3)]GKA[S5]VVE[S5]AKK-NH2; staple 2-6, 16-20) |  |
| 2 | 4 | 2 | 117 (≈ 46.1 µM) | >64 | 2 | CC(C)[C@@H]1NC(=O)[C@@](C)(NC(=O)[C@H](C)NC(=O)[C@H](CCCCN)NC(=O)CNC(=O)[C@H](Cc2ccccc2)NC(=O)[C@H](CCCCN)NC(=O)[C@H](CCCCN)NC(=O)[C@H](CCCCN)NC(=O)[C@H](CCN)NC(=O)[C@H](CCCCN)NC(=O)[C@]2(C)CCCC=CCCC[C@](C)(NC(=O)CN)C(=O)NCC(=O)N[C@@H](CCCCN)C(=O)N[C@@H](Cc3ccccc3)C(=O)N2)CCCC=CCCC[C@@](C)(C(=O)N[C@@H](C)C(=O)N[C@@H](CCCCN)C(=O)N[C@@H](CCCCN)C(N)=O)NC(=O)[C@H](CCC(=O)O)NC(=O)CNC1=O [compound 38] (H-G[S5]GKF[S5]K[Dab]KKKFGKA[S5]VGE[S5]AKK-NH2; staple 2-6, 16-20) |  |
